# According to patent US20040157773A1, “Farnesyl protein transferase inhibitors for treating cachexia” (priority 2003, published 2004):
# Experiments:
# [1] = Body weight loss (cachexia) in nude mice bearing subcutaneous A375.S2 tumors; format: in vivo; details: for reduction in weight loss: weight loss day 1 to day 23, corrected for tumor burden, vs vehicle
# Description: (§1) A375.S2 human melanoma cells were purchased from the American Type Culture Collection (Rockville, Md.). Cells were maintained in Dulbecco's Modified Eagle's Medium supplemented with pyruvate, nonessential amino acids, 10% fetal calf serum and penicillin-streptomycin.
# (§2) Female nu/nu immunodeficient nude mice (42 days old) were purchased from Charles River Laboratories (Wilmington, Mass.). Mice were housed five per cage in microisolator cages placed in laminar flow shelving to maintain sterility. All bedding, food, water and cages were autoclaved. Animals were handled within the sterile confines of a laminar flow cabinet. The mice were otherwise maintained under standard vivarium conditions.
# Cells growing as monolayers in T150 tissue culture flasks were detached by trypsinization with 10 ml of 0.05% trypsin plus 0.53 mM EDTA per flask. Tumor cell suspensions were pooled and trypsin was inactivated by the addition of serum containing medium (10 ml per 40 ml of trypsin cell suspension). Cells were collected by centrifugation and resuspended in Hank's Balanced Salt Solution (HBSS) warmed to 37° C. A 1.0 ml portion of cell suspension was added to 20 ml of diluent and counted on a Coulter particle counter. The cell suspensions were recentrifuged and resuspended at a concentration of 1×10^6 cell per 0.10 ml of HBSS. Mice were inoculated with a single subcutaneous injection of 0.10 ml of tumor cell suspension in the inguinal region. Mice were housed five per cage with 15 mice assigned to each treatment group. Mice were tagged by ear punches to allow the monitoring of individual mice during the course of the study. Body weight and tumor size determined from caliper measurements were measured weekly. The caliper measurements of length and width were multiplied to obtain tumor areas. At the end of study, mice were sacrificed by CO2 asphyxiation. Three days after tumor inoculation, the five-day treatment with R115777 was initiated. R115777 was administered once daily by oral gavage in a 20% β-cyclodextrin vehicle as a volume of 0.10 ml of solution per 10 gm body weight. Control groups received the same dosage volume of the 20% β-cyclodextrin vehicle.
# R115777 was prepared for oral administration by dissolving the compound first as a 2× concentrated stock in 40% hydroxypropyl β-cyclodextrin in 0.1 N HCl. R115777 was dissolved by stirring vigorously approximately 30 minutes followed by sonication for 10 min. The R115777 solutions were brought to a final concentration by diluting 1:1 with 0.1 N HCl. The final drug solutions were sterile filtered immediately and transferred to sterile tubes. Solutions were stored refrigerated and protected from light during the course of the study and sterility was maintained by opening solutions under sterile laminar flow conditions.
# (§3) Analysis of variance, mean values for treatment groups and standard error of the mean for in vivo parameters were calculated using IMSL subroutines on a VAX computer. A value of p<0.05 was considered significant. Weight loss was calculated for each individual animal from day 1 to day 23. Mean body weight loss for each treatment group was calculated and used for statistical analyses.
# [2] = system: A375.S2 human melanoma cells; assay: Tumor growth of subcutaneous A375.S2 xenografts in nude mice; format: in vivo; details: oral
# Description: as §1, §2
# Cells growing as monolayers in T150 tissue culture flasks were detached by trypsinization with 10 ml of 0.05% trypsin plus 0.53 mM EDTA per flask. […] A 1.0 ml portion of cell suspension was added to 20 ml of diluent and counted on a Coulter particle counter. […]
# as §3, with “A value of p<0.05 was considered significant.” left out
structure (smiles),measurement,setting,value
"Cn1cncc1C(N)(c1ccc(Cl)cc1)c1ccc2c(c1)c(-c1cccc(Cl)c1)cc(=O)n2C (single isomer, unassigned; (+)) [R115777, (+)-6-[amino(4-chlorophenyl)(1-methyl-1H-imidazol-5-yl)methyl]-4-(3-chlorophenyl)-1-methyl-2(1H)-quinolinone]",reduction in weight loss,"[1]; 50 mg/kg once daily oral gavage, A375.S2 tumor-bearing nude mice",28%
same,reduction in weight loss,"[1]; 100 mg/kg once daily oral gavage, A375.S2 tumor-bearing nude mice",45%
same,reduction in weight loss,"[1]; 200 mg/kg once daily oral gavage, A375.S2 tumor-bearing nude mice",67%
same,body weight course (weight loss),"[1]; oral, 50-200 mg/kg, body weight over time from day 14 (FIG. 2), A375.S2 tumor-bearing nude mice",appeared to prevent or delay the weight loss in a dose-dependent fashion
same,"body weight loss, statistical result","[1]; oral, 50-200 mg/kg, individual weight loss day 1 to day 23 corrected for tumor burden (FIG. 3), p<0.05 significant",significant dose dependent reduction of body weight loss
same,reduction of final tumor weight,"[2]; highest tested dose, postmortem tumor weight (FIG. 5)",27%
same,tumor growth from tumor area measurements,"[2]; 50-200 mg/kg, biweekly tumor area measurements (FIG. 1)",minimal reduction in tumor growth
